Data on 40 compounds can be found in patent publication US11708353B2, “Inhibitors of prolyl-tRNA-synthetase” (The General Hospital Corporation, priority 2018, dated 2023).

The structures appear in SMILES notation. Read-outs that look alike come from different tables or passages of the source. Bounds are passed on as bounds.

Test [1] has as its system P. falciparum Dd2 wildtype. Description: SYBR Green I asexual blood stage growth assay, Dd2 wildtype. In kind it is cell-based. As to conditions: Plasmodium falciparum. As for the experimental part: (§1) P. falciparum parasite growth was determined using a fluorescence assay based on the SYBR Green I method according to previously reported protocols (see e.g., Johnson et al, Antimicrob. Agents Chemother. 2007, 51(6):1926-1933). P. falciparum parasites were seeded in 384-well plates at 1% hematocrit and 1% starting parasitemia. Growth was assessed by SYBR Green staining of parasite DNA after 72-hour exposure to compound. All dose-response assays were carried out with 12-point dilutions in technical triplicate. Compounds were dispensed with an HP D300 Digital Dispenser (Hewlett Packard, Palo Alto, Calif., USA). Fluorescence intensity measurements were performed on a SpectraMax M5 (Molecular Devices, Sunnyvale, Calif., USA) and analyzed in GraphPad Prism version 7 (GraphPad Software, La Jolla, Calif., USA) after background subtraction and normalization to control wells. EC50 values were determined using a four-parameter nonlinear regression curve fit from at least three assays and are represented as mean±standard deviation. Statistical significance was determined by the Mann Whitney test.

In test [2] the test system is P. falciparum Dd2 (>100× resistence to halofuginone). Description: SYBR Green I asexual blood stage growth assay, Dd2 >100x halofuginone-resistant. As to conditions: Plasmodium falciparum, DD2, 72 h, read-out: P. falciparum Dd2 (>100× resistence to halofuginone) Asexual blood stage IC50 (nM). It is filed as cell-based. As for the experimental part:
as §1

Test [3] has as its target T1, Plasmodium falciparum cytoplasmic prolyl tRNA synthetase (PfcPRS) (Plasmodium falciparum, UniProt Q8I5R7).
T1 sequence (Q8I5R7 1-746): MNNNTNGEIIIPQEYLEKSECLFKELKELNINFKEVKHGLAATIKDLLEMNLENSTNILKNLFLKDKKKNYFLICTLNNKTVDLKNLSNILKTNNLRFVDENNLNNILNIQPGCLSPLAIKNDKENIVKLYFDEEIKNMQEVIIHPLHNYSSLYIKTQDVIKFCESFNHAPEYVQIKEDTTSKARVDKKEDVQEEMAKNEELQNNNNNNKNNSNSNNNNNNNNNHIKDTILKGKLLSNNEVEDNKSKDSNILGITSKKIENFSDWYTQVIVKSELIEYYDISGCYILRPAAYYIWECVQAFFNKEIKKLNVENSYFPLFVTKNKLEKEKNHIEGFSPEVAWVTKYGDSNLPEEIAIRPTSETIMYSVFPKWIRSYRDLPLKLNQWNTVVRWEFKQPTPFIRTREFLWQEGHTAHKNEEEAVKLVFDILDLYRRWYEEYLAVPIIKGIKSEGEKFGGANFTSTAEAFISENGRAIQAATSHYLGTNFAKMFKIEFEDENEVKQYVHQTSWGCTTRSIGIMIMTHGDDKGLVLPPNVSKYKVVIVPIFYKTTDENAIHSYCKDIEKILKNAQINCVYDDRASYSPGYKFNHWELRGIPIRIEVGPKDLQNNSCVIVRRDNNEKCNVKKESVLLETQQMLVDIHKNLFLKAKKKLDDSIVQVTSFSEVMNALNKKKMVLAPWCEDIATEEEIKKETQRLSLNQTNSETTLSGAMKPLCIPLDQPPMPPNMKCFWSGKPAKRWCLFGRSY
Kind of test: Thermal shift (differential scanning fluorimetry) assay. In kind it is binding. Here is the method: Thermal shift assays were performed in tetricate as previously described (Hewitt et al., 2016). 12.5 μL solutions of 0.14 mg/mL purified recombinant Plasmodium falciparum cytoplasmic prolyl tRNA synthetase (PfcPRS) in a buffer containing […] test compounds (1 mM Compound 18+1 mM Proline; 1 mM Compound 18+0 mM Proline; or DMSO vehicle control), 25 mM HEPES, pH 7.0, 100 mM NaCl, 5 v/v % glycerol, 1 mM TCEP, and optionally 1 mM Proline were incubated at 37° C. for 2 hours in 96 well PCR plates. To this was added 2.5 μL 8× SYRPO Orange Dye (Applied Biosystems 4461141) and 5 μL Protein Thermal Shift Buffer (Applied Biosystems 4461335). Protein stability for protein samples containing the test compounds was compared with apo protein samples by measuring an increase in fluorescence as detected on an Applied Biosystems SDS 7500 Fast qPCR Thermocycler from 25° C. to 99° C. at half degree increments.

For the next test, the system named is wild-type 3D7 parasites. Kind of test: Antiparasitic activity in wild-type 3D7 parasites. It is filed as cell-based. As to conditions: Plasmodium falciparum, 3D7, read-out: EC50 in wild-type parasites. Here is the method:
as §1, with “test. […]” for “test.”

In test [4] the test system is HFG-tolerant 3D7 parasites. Description: Antiparasitic activity in HFG-tolerant 3D7 parasites. In kind it is cell-based. As to conditions: Plasmodium falciparum, 3D7, read-out: EC50 in HFG-tolerant parasites. As for the experimental part:
as §1, with “test. […]” for “test.”

Test [5] relates to P. falciparum Dd2 (10× resistence to halofuginone). Description: SYBR Green I asexual blood stage growth assay, Dd2 10x halofuginone-resistant. In kind it is cell-based. The settings on record: Plasmodium falciparum, DD2, 72 h, read-out: P. falciparum Dd2 (10× resistence to halofuginone) Asexual blood stage IC50 (nM). As for the experimental part:
as §1

The subject of another test is eIF2α phosphorylation. The settings on record: cited from earlier work.
The next test has as its system P. falciparum. The settings on record: read-out: EC50 against P. falciparum in whole-cell assays; cited from earlier work.
Where [6] appears, read: DD2, 72-hour exposure, SYBR Green, read-out: P. falciparum Dd2 wildtype Asexual blood stage EC50.

In general, EC50 refers to the concentration at which the effect is half-maximal. Take `CN(C(=O)c1nccnc1N)C1Cc2ccccc2C1` [Compound 38]: the EC50 in test [1] (setting [6]) is greater than 10000 nM.

For the compound `CN1CCN(C(=O)Nc2nccnc2C(=O)NC2Cc3ccccc3C2)CC1` [Compound 10], the EC50 in test [1] (setting [6]) was 1830 nM.

In the case of `O=C(C[C@H]1NCCC[C@@H]1OC(=O)NCCCCNC(=O)Nc1nccnc1C(=O)NC1Cc2ccccc2C1)Cn1cnc2cc(Br)c(Cl)cc2c1=O` [Compound 2], the EC50 in test [1] (setting [6]) was greater than 10000 nM.

`NCCCCNC(=O)Nc1nccnc1C(=O)NC1Cc2ccccc2C1` [Compound 1]: in test [1] (setting [6]), the EC50 is greater than 10000 nM.

Turning to `CNc1nccnc1C(=O)NC1Cc2ccccc2C1` [Compound 31], the EC50 in test [1] (setting [6]) was greater than 10000 nM.

For `O=C(CCCC(=O)NC1(C(=O)Nc2nccnc2C(=O)NC2Cc3ccccc3C2)CCCCC1)NCCOCCOCCNC(=O)COc1cccc2c1C(=O)N(C1CCC(=O)NC1=O)C2=O` (stereo not drawn) [Compound 33], in test [1] (DD2, 72 h, read-out: P. falciparum Dd2 wildtype Asexual blood stage EC50 (nM)), the EC50 came out at 8540 nM.

With `O=C(NC1Cc2ccccc2C1)c1nccnc1N(C(=O)C1CCCCC1)C(=O)C1CCCCC1` [Compound 22], the EC50 in test [1] (setting [6]) stood at 627 nM.

Consider `O=C(O)c1nccnc1C(=O)NC1Cc2ccccc2C1` [Compound 27], for which the EC50 in test [1] (setting [6]) is greater than 10000 nM.

With `NC(=O)Nc1nccnc1C(=O)NC1Cc2ccccc2C1` [Compound 26], the EC50 in test [1] (setting [6]) is 9960 nM.

Regarding `O=C(NC1CCCCC1)c1nccnc1NC(=O)C1Cc2ccccc2C1` [Compound 30], in test [1] (setting [6]), the EC50 is 9540 nM.

In the case of `CC(C)(C)OC(=O)NC1(C(=O)Nc2nccnc2C(=O)NC2Cc3ccccc3C2)CCCCC1` [Compound 32], in test [1] (setting [6]), the EC50 worked out at 9520 nM.

On to `O=C(NC1Cc2ccccc2C1)c1nccnc1NC(=O)C1CCC1` [Compound 9], for which the EC50 in test [1] (setting [6]) was 3540 nM.

On to `CC(C)(C)OC(=O)N1CCC[C@H]1C(=O)NCCCCNC(=O)Nc1nccnc1C(=O)NC1Cc2ccccc2C1` [Compound 3], for which, in test [1] (setting [6]), the EC50 is greater than 10000 nM.

In the case of `O=C(NC1Cc2ccccc2C1)c1nccnc1NS(=O)(=O)C1CCCCC1` [Compound 17], the EC50 in test [1] (setting [6]) is greater than 10000 nM.

For the compound `O=C(NC1Cc2ccccc2C1)c1nccnc1NC(=O)C1CCCCN1` (stereo not drawn) [Compound 7], in test [1] (setting [6]), the EC50 came to 2990 nM.

As to `O=C(NC1CCCCC1)c1nccnc1C(=O)NC1Cc2ccccc2C1` [Compound 28], the EC50 in test [1] (setting [6]) is greater than 10000 nM.

Regarding `O=C(NC1Cc2ccccc2C1)c1nccnc1NC(=O)N(C1CCCCC1)C1CCCCC1` [Compound 13], the EC50 in test [1] (setting [6]) was 4940 nM.

With `O=C(NCCCCNC(=O)[C@@H]1CCCN1)Nc1nccnc1C(=O)NC1Cc2ccccc2C1` [Compound 4], the EC50 in test [1] (setting [6]) was greater than 10000 nM.

`O=C(O)CCCC(=O)Nc1nccnc1C(=O)NC1Cc2ccccc2C1` [Compound 5]: the EC50 in test [1] (setting [6]) is greater than 10000 nM.

For orientation: IC50 means the concentration at which inhibition is half-maximal. `O=C(NC1Cc2ccccc2C1)c1nccnc1NC(=O)N1CCCCC1` [Compound 18]: the IC50 in test [2] came to 74 nM; in test [5], 130 nM. Besides, the “Binding mode to PfcPRS relative to proline” value in test [3] was “binds PfcPRS in proline-uncompetitive fashion”. In test [3] (with 1 mM vs 0 mM Proline, FIG. 3C), the “Effect of proline on binding to PfcPRS (differential scanning fluorimetry)” value was “Pro potentiates Compound 18 binding to PfcPRS”. Moreover, the 50% effective concentration (EC50) with wild-type 3D7 parasites turned out to be 0.078 µM; in test [4] it was 0.13 µM; in test [1] (setting [6]) it was 63 nM.

`O=C(NC1Cc2ccccc2C1)c1nccnc1NC(=S)NC1CCCCC1` [Compound 35]: the EC50 in test [1] (setting [6]) came out at 8270 nM.

For the compound `Nc1nccnc1C(=O)NCc1ccc(Cl)cc1` [Compound 12], in test [1] (setting [6]), the EC50 is greater than 10000 nM.

`Nc1nccnc1C(=O)NC1Cc2ccccc2C1` [Compound 15]: the EC50 in test [1] (setting [6]) was greater than 10000 nM.

Take `O=C(Nc1nccnc1C(=O)NC1Cc2ccccc2C1)NC12CC3CC(CC(C3)C1)C2` [Compound 39]: the EC50 in test [1] (setting [6]) was greater than 10000 nM.

In the case of `O=c1[nH]c2nccnc2c(=O)n1C1Cc2ccccc2C1` [Compound 25], the EC50 in test [1] (setting [6]) was greater than 10000 nM.

On to `NC1(C(=O)Nc2nccnc2C(=O)NC2Cc3ccccc3C2)CCCCC1` [Compound 34], for which the EC50 in test [1] (setting [6]) came to 4840 nM.

On to `CC(C)(C)OC(=O)N[C@H]1CC[C@@H](C(=O)Nc2nccnc2C(=O)NC2Cc3ccccc3C2)CC1` [Compound 23], for which, in test [1] (setting [6]), the EC50 was determined as 386 nM.

Turning to `C[C@@H]1CCC[C@H](C)N1C(=O)Nc1nccnc1C(=O)NC1Cc2ccccc2C1` [Compound 14], the EC50 in test [1] (setting [6]) came out at 73 nM.

As for `O=C(NC1Cc2ccccc2C1)c1nccnc1NC(=O)C1(O)CCCCC1` [Compound 21], the concentration for a half-maximal effect (EC50) in test [1] (setting [6]) was 1350 nM.

With `O=C(NC1Cc2ccccc2C1)c1nccnc1NC(=O)C1CCOCC1` [Compound 20], the EC50 in test [1] (setting [6]) was greater than 10000 nM.

For the compound `CC1(C(=O)Nc2nccnc2C(=O)NC2Cc3ccccc3C2)CCCCC1` [Compound 19], the EC50 in test [1] (setting [6]) was 173 nM.

As for `Nc1nccnc1C(=O)NC1CCCCC1` [Compound 29], the EC50 in test [1] (setting [6]) is greater than 10000 nM.

With `O=C(NC1Cc2ccccc2C1)c1nccnc1NCC1CCCCC1` [Compound 37], the EC50 in test [1] (setting [6]) is greater than 10000 nM.

Consider `O=C(NC1Cc2ccccc2C1)c1nccnc1NC(=O)N1CCCC(C(=O)O)C1` (stereo not drawn) [Compound 11], for which, in test [1] (setting [6]), the EC50 worked out at 6200 nM.

As to `O=C(Nc1nccnc1C(=O)NC1Cc2ccccc2C1)c1ccccc1` [Compound 24], in test [1] (setting [6]), the EC50 was greater than 10000 nM.

For `CC(C)(C)OC(=O)N1CCCCC1C(=O)Nc1nccnc1C(=O)NC1Cc2ccccc2C1` (stereo not drawn) [Compound 6], the EC50 in test [1] (setting [6]) amounted to 3790 nM.

Take `O=C(NC1Cc2ccccc2C1)c1nccnc1NC(=O)C1CCCCC1` [Compound 16]: the IC50 in test [5] worked out at 1160 nM. The EC50 in test [1] (setting [6]) is 544 nM.

With `CC(C)N(C(=O)Nc1nccnc1C(=O)NC1Cc2ccccc2C1)C(C)C` [Compound 8], in test [1] (setting [6]), the EC50 was found to be 499 nM.

As for `O=C(Nc1nccnc1C(=O)NC1Cc2ccccc2C1)NC1CCCCC1` [Compound 36], in test [1] (setting [6]), the EC50 is greater than 10000 nM.

On to `Nc1ncnc2c1ncn2[C@@H]1O[C@H](COS(=O)(=O)NC(=O)[C@@H]2CCCN2)[C@@H](O)[C@H]1O` [ProSA, L-prolyl-sulfamoyl adenosine], for which the eIF2α phosphorylation result with eIF2α phosphorylation is given as “induces eIF2α phosphorylation”. Besides, the EC50 in the test on P. falciparum was 0.097 µM.
